Measurements reported in patent US20060069132A1, “Azolecarboxamide herbicides” (priority 2004, published 2006).

Tests used:
Assay in all cases: Test E pre-/postemergence herbicide test
[1] = tested on: Surinam grass; format: in vivo, Urochloa decumbens
In short: (§1)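 Ratings from 0 (no effect) to 100 (complete control) were assigned by visual comparison with untreated plants 12 to 14 days after application. Test chemicals, formulated with surfactant in a non-phytotoxic solvent blend, were applied to soil after planting or to foliage of 2–18 cm plants.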

[2] = tested on: downy bromegrass; format: in vivo, Bromus tectorum
In short: as §1

[3] = tested on: guineagrass; format: in vivo, Panicum maximum
In short: as §1

[4] = tested on: large crabgrass; format: in vivo, Digitaria sanguinalis
In short: as §1

[5] = tested on: common purslane; format: in vivo, Portulaca oleracea; details: scale 0 to 100
In short: as §1

[6] = tested on: hairy beggarticks; format: in vivo, Bidens radiata; details: Preemergence
In short: as §1

[7] = tested on: broadleaf signalgrass; format: in vivo, Brachiaria platyphylla
In short: as §1

[8] = tested on: common groundsel; format: in vivo, Senecio vulgaris; details: scale 0 to 100
In short: as §1

[9] = tested on: common ragweed; format: in vivo, Ambrosia elatior
In short: as §1

[10] = tested on: itchgrass; format: in vivo, Rottboellia cochinchinensis
In short: as §1

[11] = Postemergence, 500 g ai/ha, scale 0 to 100
[12] = Postemergence, 250 g ai/ha, scale 0 to 100
[13] = Preemergence, 125 g ai/ha, scale 0 to 100
[14] = Preemergence, 375 g ai/ha, scale 0 (no effect) to 100 (complete control)
[15] = Preemergence, 500 g ai/ha, scale 0 (no effect) to 100 (complete control)
[16] = postemergence, 125 g ai/ha, scale 0 to 100
[17] = postemergence, 62 g ai/ha, scale 0 to 100
[18] = Preemergence, 250 g ai/ha, scale 0 (no effect) to 100 (complete control)
[19] = 250 g ai/ha, scale 0 (no effect) to 100 (complete control)
[20] = 500 g ai/ha, scale 0 (no effect) to 100 (complete control)
[21] = Preemergence, 62 g ai/ha, scale 0 to 100

CCn1nc(C(C)(C)C)cc1C(=O)Nc1cc(C(=S)N(C)C)ccc1F [Compound 294]
70: Plant response rating, Surinam Grass [1, 16] | Plant response rating, Guineagrass [3, 16] | Plant response rating, Crabgrass, Large [4, 16] | Plant response rating, Signalgrass [7, 11] | Plant response rating, Signalgrass [7, 18] | Plant response rating, Ragweed [9, 12] | Plant response rating, Itchgrass [10, 16]
75: Plant response rating, Bromegrass, Downy [2, 16] | Plant response rating, Crabgrass, Large [4, 12] | Plant response rating, Crabgrass, Large [4, 13] | Plant response rating, Ragweed [9, 13] | Plant response rating, Itchgrass [10, 12] | Plant response rating, Itchgrass [10, 18]
40: Plant response rating, Crabgrass, Large [4, 17]
50: Plant response rating, Guineagrass [3, 17] | Plant response rating, Signalgrass [7, 12] | Plant response rating, Signalgrass [7, 13] | Plant response rating, Groundsel ([8]; postemergence, 62 g ai/ha) | Plant response rating, Itchgrass [10, 17]
90: Plant response rating, Guineagrass [3, 13] | Plant response rating, Purslane ([5]; Postemergence, 500 g ai/ha) | Plant response rating, Purslane ([5]; Postemergence, 250 g ai/ha) | Plant response rating, Groundsel ([8]; Postemergence, 250 g ai/ha)
100: Plant response rating, Surinam Grass [1, 14] | Plant response rating, Surinam Grass [1, 15] | Plant response rating, Bromegrass, Downy [2, 18] | Plant response rating, Bromegrass, Downy [2, 14] | Plant response rating, Bromegrass, Downy [2, 15] | Plant response rating, Guineagrass [3, 18] | Plant response rating, Guineagrass [3, 14] | Plant response rating, Guineagrass [3, 15] | Plant response rating, Crabgrass, Large [4, 14] | Plant response rating, Crabgrass, Large [4, 15] | Plant response rating, Beggarticks, Hairy ([6]; 125 g ai/ha, scale 0 to 100) | Plant response rating, Beggarticks, Hairy [6, 19] | Plant response rating, Beggarticks, Hairy ([6]; 375 g ai/ha, scale 0 (no effect) to 100 (complete control)) | Plant response rating, Beggarticks, Hairy [6, 20] | Plant response rating, Ragweed [9, 14] | Plant response rating, Ragweed [9, 15] | Plant response rating, Itchgrass [10, 15]
10: Plant response rating, Purslane ([5]; postemergence, 62 g ai/ha)
95: Plant response rating, Surinam Grass [1, 13] | Plant response rating, Bromegrass, Downy [2, 11] | Plant response rating, Crabgrass, Large [4, 18] | Plant response rating, Itchgrass [10, 14]
80: Plant response rating, Surinam Grass [1, 12] | Plant response rating, Bromegrass, Downy [2, 13] | Plant response rating, Guineagrass [3, 12] | Plant response rating, Crabgrass, Large [4, 11] | Plant response rating, Signalgrass [7, 14] | Plant response rating, Signalgrass [7, 15] | Plant response rating, Ragweed [9, 11] | Plant response rating, Itchgrass [10, 11]
30: Plant response rating, Surinam Grass [1, 17] | Plant response rating, Signalgrass [7, 16] | Plant response rating, Signalgrass [7, 17] | Plant response rating, Ragweed [9, 17]
60: Plant response rating, Bromegrass, Downy [2, 17] | Plant response rating, Purslane ([5]; postemergence, 125 g ai/ha) | Plant response rating, Ragweed [9, 16]
85: Plant response rating, Surinam Grass [1, 11] | Plant response rating, Bromegrass, Downy [2, 12] | Plant response rating, Guineagrass [3, 11] | Plant response rating, Ragweed [9, 18]

CCn1nc(C2(C)CC2)cc1C(=O)Nc1cc(C(=O)N(C)C)ccc1F [Compound 299]
85: Plant response rating, Guineagrass [3, 11] | Plant response rating, Guineagrass [3, 13] | Plant response rating, Crabgrass, Large [4, 16] | Plant response rating, Ragweed [9, 13]
30: Plant response rating, Ragweed [9, 17] | Plant response rating, Itchgrass [10, 17]
90: Plant response rating, Surinam Grass [1, 11] | Plant response rating, Crabgrass, Large [4, 21] | Plant response rating, Ragweed [9, 11] | Plant response rating, Ragweed [9, 18] | Plant response rating, Itchgrass [10, 18]
75: Plant response rating, Surinam Grass [1, 12] | Plant response rating, Surinam Grass [1, 16] | Plant response rating, Guineagrass [3, 12] | Plant response rating, Crabgrass, Large [4, 17] | Plant response rating, Purslane ([5]; postemergence, 125 g ai/ha) | Plant response rating, Itchgrass [10, 12] | Plant response rating, Itchgrass [10, 13]
50: Plant response rating, Bromegrass, Downy [2, 17] | Plant response rating, Beggarticks, Hairy ([6]; 62 g ai/ha, scale 0 to 100)
60: Plant response rating, Guineagrass [3, 17] | Plant response rating, Signalgrass [7, 21] | Plant response rating, Signalgrass [7, 16] | Plant response rating, Ragweed [9, 16] | Plant response rating, Itchgrass [10, 21]
70: Plant response rating, Surinam Grass [1, 17] | Plant response rating, Bromegrass, Downy [2, 16] | Plant response rating, Guineagrass [3, 21] | Plant response rating, Guineagrass [3, 16] | Plant response rating, Purslane ([5]; postemergence, 62 g ai/ha) | Plant response rating, Signalgrass [7, 12] | Plant response rating, Groundsel ([8]; postemergence, 125 g ai/ha) | Plant response rating, Ragweed [9, 12] | Plant response rating, Itchgrass [10, 16]
100: Plant response rating, Surinam Grass [1, 15] | Plant response rating, Bromegrass, Downy [2, 18] | Plant response rating, Bromegrass, Downy [2, 15] | Plant response rating, Guineagrass [3, 18] | Plant response rating, Guineagrass [3, 15] | Plant response rating, Crabgrass, Large [4, 13] | Plant response rating, Crabgrass, Large [4, 18] | Plant response rating, Crabgrass, Large [4, 15] | Plant response rating, Purslane ([5]; Postemergence, 500 g ai/ha) | Plant response rating, Beggarticks, Hairy ([6]; 125 g ai/ha, scale 0 to 100) | Plant response rating, Beggarticks, Hairy [6, 19] | Plant response rating, Beggarticks, Hairy [6, 20] | Plant response rating, Signalgrass [7, 18] | Plant response rating, Signalgrass [7, 15] | Plant response rating, Groundsel ([8]; Postemergence, 250 g ai/ha) | Plant response rating, Ragweed [9, 15] | Plant response rating, Itchgrass [10, 15]
20: Plant response rating, Signalgrass [7, 17] | Plant response rating, Ragweed [9, 21]
95: Plant response rating, Surinam Grass [1, 13] | Plant response rating, Bromegrass, Downy [2, 11] | Plant response rating, Crabgrass, Large [4, 11] | Plant response rating, Crabgrass, Large [4, 12]
80: Plant response rating, Bromegrass, Downy [2, 12] | Plant response rating, Purslane ([5]; Postemergence, 250 g ai/ha) | Plant response rating, Signalgrass [7, 11] | Plant response rating, Signalgrass [7, 13] | Plant response rating, Itchgrass [10, 11]
